The target in assay [1] is T1, Tyrosine-protein phosphatase non-receptor type 7 (Homo sapiens, UniProt P35236).
T1 sequence (P35236 whole entry): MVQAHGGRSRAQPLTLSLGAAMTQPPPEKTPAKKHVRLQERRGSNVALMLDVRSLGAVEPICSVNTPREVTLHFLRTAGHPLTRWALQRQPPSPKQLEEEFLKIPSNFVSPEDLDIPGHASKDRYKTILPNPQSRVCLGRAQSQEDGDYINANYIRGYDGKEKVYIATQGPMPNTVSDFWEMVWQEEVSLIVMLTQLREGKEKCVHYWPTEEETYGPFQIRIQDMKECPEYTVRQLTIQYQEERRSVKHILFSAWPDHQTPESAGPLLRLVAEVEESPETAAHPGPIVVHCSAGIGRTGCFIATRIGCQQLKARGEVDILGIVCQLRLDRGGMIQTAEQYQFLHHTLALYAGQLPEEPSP
Type of assay: functional.

The target of assay [2] is Glyceraldehyde-3-phosphate dehydrogenase (Homo sapiens, UniProt P04406).
Sequence of Glyceraldehyde-3-phosphate dehydrogenase (P04406 whole entry): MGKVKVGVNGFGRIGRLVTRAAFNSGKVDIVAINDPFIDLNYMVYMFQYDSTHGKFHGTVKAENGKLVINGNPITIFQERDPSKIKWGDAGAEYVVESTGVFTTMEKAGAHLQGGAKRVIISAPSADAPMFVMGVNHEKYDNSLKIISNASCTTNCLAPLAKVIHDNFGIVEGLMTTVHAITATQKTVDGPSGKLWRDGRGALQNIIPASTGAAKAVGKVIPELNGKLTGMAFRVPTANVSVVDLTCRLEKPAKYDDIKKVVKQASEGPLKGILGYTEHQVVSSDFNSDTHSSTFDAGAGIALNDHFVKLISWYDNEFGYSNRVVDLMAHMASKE
The target of assay [3] is T2, Dual specificity protein phosphatase 6 (Rattus norvegicus, UniProt Q64346).
T2 sequence (Q64346 whole entry): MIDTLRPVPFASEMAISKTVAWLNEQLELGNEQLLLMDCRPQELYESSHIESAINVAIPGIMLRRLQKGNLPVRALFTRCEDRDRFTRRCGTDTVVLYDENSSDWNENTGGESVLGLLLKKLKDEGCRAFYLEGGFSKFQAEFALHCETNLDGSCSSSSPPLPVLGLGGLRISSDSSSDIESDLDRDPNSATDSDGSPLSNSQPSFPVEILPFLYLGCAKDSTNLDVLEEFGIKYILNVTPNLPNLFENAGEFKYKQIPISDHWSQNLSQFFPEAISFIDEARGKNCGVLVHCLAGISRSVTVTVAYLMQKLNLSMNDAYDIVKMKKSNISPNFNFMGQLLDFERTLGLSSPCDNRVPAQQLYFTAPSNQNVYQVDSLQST
For assay [4], the target named is T2, Dual specificity protein phosphatase 6. The format is functional.
Assay [5] can be described thus: insulin promoter down-regulators in MIN6 cells, imaging, high-content screening, mouse beta cells (AID 1628). The format is functional.
The nature of assay [6]: cytotoxicity in MIN6 insulinoma cells, dose response, cytotoxicity control, cell-based, mouse insulinoma (AID 2122).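 Also: confirmatory high-throughput counterscreen run to flag cytotoxic compounds; mouse MIN-6 beta cells carrying an insulin promoter eGFP reporter.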 The format is functional.
A short description of assay [7]: inhibitors of intracellular T. cruzi replication, confirmation, NIH3T3 host cells, beta-gal luminescence (AID 2044).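 Also: intracellular parasites grown in NIH/3T3 mouse fibroblasts as host cells; luminescent beta-galactosidase reporter signal from transgenic T. cruzi replicating inside host cells; inhibitors lower the luminescence signal.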 The format is functional, cell-based.
Assay [8] can be described thus: cytotoxicity toward NIH3T3 fibroblasts, dose response, counter-screen, cell-based, ATP luminescence, mouse fibroblasts (AID 2010).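 Also: cells exposed to compound for about 90 hours before reading.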 The format is functional. (In general: Counterscreens check selectivity or assay interference.)
Assay [9] can be described thus: Luminescence Cell-Based Dose Retest to Confirm Inhibitors of Cancer Stem Cells. [Related pubchem assays (depositor defined):AID2717, AID2721]. The format is functional. The conditions noted are these: Homo sapiens.
A short description of assay [10]: cytotoxicity in HMLE control line with eGFP shRNA, dose response, counter-screen for HMLE_sh_ECad selective toxicity project, cell-based, HMLE_sh_eGFP, luminescence (AID 463074).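 Also: HMLE human mammary epithelial cells expressing control shRNA against eGFP.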 Type of assay: functional, Homo sapiens.
Assay [11] deals with Dual specificity tyrosine-phosphorylation-regulated kinase 1A (Rattus norvegicus, UniProt Q63470). Type of assay: biochemical, Homo sapiens.
Another assay relates to Escherichia coli. The experiment in a line: microbe, parasite or virus in culture.
For another assay, the target named is ORF 73 (Human herpesvirus 8, UniProt O40947). The experiment in a line: inhibitors of C-LANA binding to LBS DNA, dose response, biochemical, fluorescence polarization, cherry-picked samples (AID 504725).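 Also: fluorescence polarization of a labeled DNA duplex reporting LANA DNA binding; potency is for inhibitors that block LANA binding to the DNA.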 Details: species or system Human gammaherpesvirus 8.
Sequence of ORF 73 (O40947 whole entry): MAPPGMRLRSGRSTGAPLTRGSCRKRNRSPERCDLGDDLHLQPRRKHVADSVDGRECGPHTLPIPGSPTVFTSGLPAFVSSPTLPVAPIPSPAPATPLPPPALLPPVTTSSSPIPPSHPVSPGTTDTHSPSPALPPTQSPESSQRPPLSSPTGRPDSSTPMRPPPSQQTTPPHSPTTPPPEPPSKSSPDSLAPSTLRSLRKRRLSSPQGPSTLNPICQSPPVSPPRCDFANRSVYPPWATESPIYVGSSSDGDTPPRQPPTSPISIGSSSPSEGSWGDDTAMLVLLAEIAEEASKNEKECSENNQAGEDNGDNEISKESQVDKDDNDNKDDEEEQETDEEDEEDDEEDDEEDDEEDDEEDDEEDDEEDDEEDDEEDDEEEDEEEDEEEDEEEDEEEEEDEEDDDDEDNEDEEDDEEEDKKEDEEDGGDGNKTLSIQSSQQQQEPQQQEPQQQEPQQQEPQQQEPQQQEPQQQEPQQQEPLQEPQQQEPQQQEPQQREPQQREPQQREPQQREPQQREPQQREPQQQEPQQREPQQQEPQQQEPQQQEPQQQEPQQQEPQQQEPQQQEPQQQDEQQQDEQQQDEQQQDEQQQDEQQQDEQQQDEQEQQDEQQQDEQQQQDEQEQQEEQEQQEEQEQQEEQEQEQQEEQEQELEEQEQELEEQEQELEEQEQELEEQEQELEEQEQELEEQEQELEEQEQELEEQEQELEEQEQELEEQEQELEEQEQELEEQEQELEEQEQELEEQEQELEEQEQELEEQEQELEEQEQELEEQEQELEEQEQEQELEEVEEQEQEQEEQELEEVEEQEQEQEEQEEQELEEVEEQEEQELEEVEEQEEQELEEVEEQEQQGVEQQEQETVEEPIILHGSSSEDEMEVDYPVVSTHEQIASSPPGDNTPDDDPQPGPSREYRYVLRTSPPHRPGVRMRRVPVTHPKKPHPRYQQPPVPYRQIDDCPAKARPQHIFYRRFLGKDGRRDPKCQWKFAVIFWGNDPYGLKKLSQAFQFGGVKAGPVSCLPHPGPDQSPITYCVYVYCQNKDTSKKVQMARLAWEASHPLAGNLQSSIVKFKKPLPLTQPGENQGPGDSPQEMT
The next assay addresses Keap1/Nrf2 (Homo sapiens, UniProt Q14145). In words: Keap1-Nrf2 protein-protein interaction inhibitors, dose response, biochemical, fluorescence polarization, cherry-picked samples (AID 588683).
The test system of assay [12] is HEK293. In words: cells. The settings on record: Homo sapiens.
The subject of assay [13] is HEK293. The experiment in a line: cells. The settings on record: Homo sapiens. The source holds these as a separate data set.
Assay [14] is described as follows: THP-1 cell cytotoxicity, dose response, cytotoxicity control for non-replicating M. tuberculosis project (AID 489025). Type of assay: functional.
Assay [15] is described as follows: HepG2 cell cytotoxicity, dose response, cytotoxicity control for non-replicating M. tuberculosis project (AID 489018). The format is functional. The conditions noted are these: Mycobacterium tuberculosis.
A short description of assay [16]: cytotoxicity in NIH/3T3 mouse fibroblasts, dose response, cytotoxicity control, cell-based, mouse embryonic fibroblasts, dry powder, set 2 (AID 493247). The format is functional. The conditions noted are these: Fibroblast.
For a further assay, the system named is Trypanosoma cruzi. The experiment in a line: growth inhibition of intracellular Trypanosoma cruzi, dose response, cell-based, plate reader, dry powder, set 3 (AID 493197). The format is functional.
A short description of assay [17]: Vero E6 cell cytotoxicity, dose response, cytotoxicity control for non-replicating M. tuberculosis project, secondary assay (AID 492998). The format is functional, VeroE6. The conditions noted are these: Vero C1008.
For assay [18], the target named is T3, Microphthalmia-associated transcription factor (Homo sapiens, UniProt O75030).
T3 sequence (O75030 whole entry): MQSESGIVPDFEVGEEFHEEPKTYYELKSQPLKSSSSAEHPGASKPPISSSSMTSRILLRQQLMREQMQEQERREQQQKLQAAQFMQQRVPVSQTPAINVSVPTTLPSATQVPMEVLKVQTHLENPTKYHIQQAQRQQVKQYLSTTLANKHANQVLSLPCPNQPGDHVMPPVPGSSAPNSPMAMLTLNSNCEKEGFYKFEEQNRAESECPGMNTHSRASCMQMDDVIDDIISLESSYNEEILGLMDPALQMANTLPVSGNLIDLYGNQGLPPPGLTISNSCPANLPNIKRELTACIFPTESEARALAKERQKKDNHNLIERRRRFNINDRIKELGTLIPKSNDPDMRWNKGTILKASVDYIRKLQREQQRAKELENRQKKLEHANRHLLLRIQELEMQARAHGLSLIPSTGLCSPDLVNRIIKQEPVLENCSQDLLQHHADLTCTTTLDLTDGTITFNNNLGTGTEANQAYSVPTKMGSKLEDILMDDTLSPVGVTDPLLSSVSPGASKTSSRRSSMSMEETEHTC
The experiment in a line: TRPM1 promoter luciferase signal decrease, dose response, MITF inhibitor project, cell-based, SK-MEL-5, cherry-picked, set 3 (AID 493073).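 Also: SK-MEL-5 melanoma cells with luciferase driven by the MITF target TRPM1 promoter.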 Type of assay: functional.

Assay [19] can be described thus: cells. Type of assay: functional.
The nature of assay [20]: inhibitors of Trypanosoma cruzi host-cell infection, confirmation, beta-gal luminescence, NIH3T3 host cells (AID 2630). The format is functional, cell-based. The settings on record: Mus musculus.
A further assay deals with A-375. In words: MITF: Counter assay: A375 proliferation Measured in Cell-Based System Using Plate Reader - 2084-03_Inhibitor_Dose_DryPowder_Activity. [Related pubchem assays (depositor defined):AID488944]. The format is functional. The settings on record: Homo sapiens.
A short description of assay [21]: cells.
Assay [22] is described as follows: HIV-1 Env-mediated cell fusion inhibitors, dose response, CCR5-tropic Env (AID 2279). Type of assay: functional.
Assay [23] has as its target T4, Apoptotic protease-activating factor 1 (Homo sapiens, UniProt O14727).
T4 sequence (O14727 whole entry): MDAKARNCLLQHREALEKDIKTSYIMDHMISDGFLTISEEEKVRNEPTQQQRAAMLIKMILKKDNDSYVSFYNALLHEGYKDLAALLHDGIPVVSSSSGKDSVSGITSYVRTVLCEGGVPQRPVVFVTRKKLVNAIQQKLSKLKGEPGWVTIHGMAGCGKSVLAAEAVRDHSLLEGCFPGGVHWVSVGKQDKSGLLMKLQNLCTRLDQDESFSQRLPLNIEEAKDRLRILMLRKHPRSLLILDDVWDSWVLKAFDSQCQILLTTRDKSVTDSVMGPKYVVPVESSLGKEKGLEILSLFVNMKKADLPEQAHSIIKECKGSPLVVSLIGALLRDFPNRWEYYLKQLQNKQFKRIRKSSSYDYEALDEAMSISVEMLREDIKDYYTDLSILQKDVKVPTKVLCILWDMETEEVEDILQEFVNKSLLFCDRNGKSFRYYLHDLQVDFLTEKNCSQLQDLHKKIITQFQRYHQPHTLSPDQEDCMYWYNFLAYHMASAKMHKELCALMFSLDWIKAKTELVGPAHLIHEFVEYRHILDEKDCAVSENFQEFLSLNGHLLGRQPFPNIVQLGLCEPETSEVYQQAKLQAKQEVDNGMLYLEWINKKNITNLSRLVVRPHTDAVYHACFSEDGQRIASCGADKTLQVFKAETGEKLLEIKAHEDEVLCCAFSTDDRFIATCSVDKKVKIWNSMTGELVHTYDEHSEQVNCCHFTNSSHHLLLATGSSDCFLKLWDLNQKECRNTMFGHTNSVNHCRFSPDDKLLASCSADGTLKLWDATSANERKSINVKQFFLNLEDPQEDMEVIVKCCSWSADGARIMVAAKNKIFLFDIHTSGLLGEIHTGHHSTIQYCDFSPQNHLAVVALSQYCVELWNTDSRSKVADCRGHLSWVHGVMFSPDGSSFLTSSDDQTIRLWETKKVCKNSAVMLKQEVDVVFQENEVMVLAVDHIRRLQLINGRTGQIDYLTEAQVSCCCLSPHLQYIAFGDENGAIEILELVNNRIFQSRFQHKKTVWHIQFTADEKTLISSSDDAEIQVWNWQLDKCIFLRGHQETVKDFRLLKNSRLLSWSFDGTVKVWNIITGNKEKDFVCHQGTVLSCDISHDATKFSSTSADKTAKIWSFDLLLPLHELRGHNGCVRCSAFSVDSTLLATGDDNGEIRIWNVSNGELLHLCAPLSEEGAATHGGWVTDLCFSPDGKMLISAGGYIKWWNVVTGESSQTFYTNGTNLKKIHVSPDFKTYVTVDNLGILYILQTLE
The experiment in a line: activation of Apaf-1 mediated apoptosis – fluorescent, uHTS hits, dose response (AID 588554). The format is functional.

Assay [24] concerns the target T5, Calpain-2 catalytic subunit (Sus scrofa, UniProt P43367).
T5 sequence (P43367 whole entry): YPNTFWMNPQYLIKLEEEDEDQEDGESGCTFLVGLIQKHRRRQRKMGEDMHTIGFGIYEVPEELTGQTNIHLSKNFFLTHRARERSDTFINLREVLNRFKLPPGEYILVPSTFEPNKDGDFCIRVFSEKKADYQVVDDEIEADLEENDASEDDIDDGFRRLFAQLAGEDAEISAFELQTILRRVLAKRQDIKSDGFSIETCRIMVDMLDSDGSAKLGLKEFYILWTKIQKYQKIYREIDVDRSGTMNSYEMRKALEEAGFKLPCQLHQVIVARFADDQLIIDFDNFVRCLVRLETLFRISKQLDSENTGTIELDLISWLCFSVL
In words: pig calpain II inhibitor potency, dose response, biochemical, fluorogenic peptide substrate (AID 1420). Type of assay: functional.

The target of assay [25] is Luciferin 4-monooxygenase (Photuris pensylvanica, UniProt Q27757). In words: firefly luciferase enzyme inhibitors, dose response, counter-screen for HSF-1 reporter inhibitor project, biochemical, Cell Titer Glo, luminescence, cherry-picks (AID 588847).
Sequence of Luciferin 4-monooxygenase (Q27757 whole entry): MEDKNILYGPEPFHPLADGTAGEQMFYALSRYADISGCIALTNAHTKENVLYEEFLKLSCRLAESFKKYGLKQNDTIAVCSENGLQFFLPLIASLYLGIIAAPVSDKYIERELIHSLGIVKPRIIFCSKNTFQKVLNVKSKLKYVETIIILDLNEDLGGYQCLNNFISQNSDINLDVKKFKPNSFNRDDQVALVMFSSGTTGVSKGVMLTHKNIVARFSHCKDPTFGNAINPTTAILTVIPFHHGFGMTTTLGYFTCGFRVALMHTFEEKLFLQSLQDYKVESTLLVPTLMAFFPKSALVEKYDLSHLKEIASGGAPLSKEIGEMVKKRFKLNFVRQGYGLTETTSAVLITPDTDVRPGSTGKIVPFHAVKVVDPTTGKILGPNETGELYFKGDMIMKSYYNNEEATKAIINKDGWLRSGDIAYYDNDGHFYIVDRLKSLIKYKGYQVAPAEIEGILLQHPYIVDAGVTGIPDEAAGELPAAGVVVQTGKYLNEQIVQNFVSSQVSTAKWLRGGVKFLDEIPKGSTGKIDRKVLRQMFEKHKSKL

The source made the active and inactive calls.

These results are taken from ChEMBL document CHEMBL1201862, “PubChem BioAssay data set” (2004).

The IC50 is the point on the concentration scale where inhibition reaches its midpoint. Broadly, the EC50 is the concentration that produces a half-maximal response. For orientation: AC50 means the concentration giving half of the maximal activity seen. Broadly, the CC50 is the concentration at which the toxic effect on the cells reaches its halfway point.

Sequence of Keap1/Nrf2 (Q16236 whole entry): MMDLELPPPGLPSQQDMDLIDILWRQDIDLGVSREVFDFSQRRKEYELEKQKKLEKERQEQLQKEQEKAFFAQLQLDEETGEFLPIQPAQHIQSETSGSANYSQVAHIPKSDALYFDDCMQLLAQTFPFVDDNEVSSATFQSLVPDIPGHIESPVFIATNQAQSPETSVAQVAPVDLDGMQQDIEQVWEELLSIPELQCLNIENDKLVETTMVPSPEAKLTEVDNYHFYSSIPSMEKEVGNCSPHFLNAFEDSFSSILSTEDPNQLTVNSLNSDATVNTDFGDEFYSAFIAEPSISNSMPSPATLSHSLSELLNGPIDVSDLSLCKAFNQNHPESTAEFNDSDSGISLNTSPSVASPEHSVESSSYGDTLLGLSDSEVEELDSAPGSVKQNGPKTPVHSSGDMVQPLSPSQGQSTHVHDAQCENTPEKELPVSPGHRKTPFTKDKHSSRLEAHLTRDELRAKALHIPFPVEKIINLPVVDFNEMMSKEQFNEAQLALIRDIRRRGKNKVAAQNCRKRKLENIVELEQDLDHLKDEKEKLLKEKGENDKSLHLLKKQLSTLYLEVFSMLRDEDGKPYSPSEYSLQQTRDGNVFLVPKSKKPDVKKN
Sequence of Keap1/Nrf2 (Q14145 whole entry): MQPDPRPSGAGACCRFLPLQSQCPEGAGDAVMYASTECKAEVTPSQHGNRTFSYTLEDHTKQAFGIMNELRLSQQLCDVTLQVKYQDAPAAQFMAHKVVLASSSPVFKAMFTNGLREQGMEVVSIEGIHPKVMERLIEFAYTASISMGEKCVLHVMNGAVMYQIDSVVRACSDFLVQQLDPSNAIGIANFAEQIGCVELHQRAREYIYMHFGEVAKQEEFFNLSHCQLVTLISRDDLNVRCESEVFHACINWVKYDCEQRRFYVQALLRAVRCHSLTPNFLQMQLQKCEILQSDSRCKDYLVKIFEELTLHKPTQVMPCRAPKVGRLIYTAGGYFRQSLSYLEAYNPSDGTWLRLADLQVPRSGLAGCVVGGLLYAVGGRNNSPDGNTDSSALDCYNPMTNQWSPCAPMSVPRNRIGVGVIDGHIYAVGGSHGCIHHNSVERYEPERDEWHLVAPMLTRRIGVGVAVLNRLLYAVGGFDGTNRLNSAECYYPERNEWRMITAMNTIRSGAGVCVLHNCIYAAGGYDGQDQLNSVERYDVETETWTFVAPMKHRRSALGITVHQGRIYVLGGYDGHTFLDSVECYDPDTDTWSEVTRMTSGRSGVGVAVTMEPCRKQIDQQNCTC

For the molecule `CCCCCCCCC#CC#CCCCC(=O)O`, the half-maximal inhibitory concentration (IC50) is 96.2 µM (not active) in assay [1], > 100 µM (not active) in assay [2], > 100 µM (inactive) in [3] and > 100 µM (inactive) in [4].
Consider `CN1/C(=C\C(=O)COc2ccc3c(c2)OCO3)C(C)(C)c2ccccc21`, for which the values for the IC50 in [5] and in [6] were 1.48 µM (active) and 0.768 µM (active), respectively. The EC50 in assay [7] was 2.75 µM (active); in [8], > 60 µM (not active). Further, the figures for the AC50 in assay [9] and in assay [10] were 4.1 µM (active) and 23.4 µM (active), respectively.
Turning to `COc1ccc2cc3cc(C(=O)NCCN4CCN(Cc5ccccc5)CC4)oc3nc2c1`, the AC50 in [11] is 1.51 µM (active).
Take `CCOc1ccc(S(=O)(=O)Nc2cc(Cl)ccc2O)cc1`: the AC50 with Escherichia coli was 53.7 µM (active).
For `CCc1ccc[n+](-c2[n-]c(=O)sc2C=NNC(=S)Nc2ccccc2)c1`, the AC50 is 10.1 µM (active) on ORF 73 and 13.6 µM (active) on Keap1/Nrf2.
Consider `O=C(NC12CC3CC(CC(C3)C1)C2)N(Cc1ccccc1)Cc1ccncc1`, for which the EC50 in the assay on HEK293 [12] and in the assay on HEK293 [13] was > 59.6 µM (inactive) each time.
As to `O=C(CNc1cccc([N+](=O)[O-])c1)N/N=C/c1ccc([N+](=O)[O-])o1`, the EC50 in assay [7] was < 0.1 µM (active); in assay [8], > 60 µM (not active); in [20], 0.0205 µM (active); in the assay “cells [21]”, 0.055 µM (active). The CC50 in assay [14] is 14.1 µM (active); in assay [15], 10.1 µM (active); in [17] it was 11.6 µM (active). For the same molecule, the AC50 in assay [16] was 35.6 µM (active); with Trypanosoma cruzi it was 0.061 µM (active); in assay [18] it was 8.63 µM (active); in the assay on A-375 it was 41.8 µM (active). The IC50 in “cells [19]” is 5.42 µM (active).
Take `O=C(N/N=C/c1cc(Cl)cc([N+](=O)[O-])c1O)NC12CC3CC(CC(C3)C1)C2`: the IC50 in assay [22] is 40 µM (active). Further, the AC50 in assay [9] was 5.03 µM (active). Moreover, the EC50 in assay [23] was 6.87 µM (active).
In the case of `Cc1nn(-c2cccc(C(F)(F)F)c2)c(Cl)c1/C=N/Nc1cccc(C(=O)O)c1`, the IC50 in assay [24] is 11.4 µM (not active). Further, the AC50 in assay [25] is > 52 µM (inactive).
